US4871527A, “No-carrier-added [^18 F]-N-fluoroalkylspiroperidols” (The United States of America as represented by the United …, priority 1987, dated 1989)
Entries after “also recorded” stand apart in the source; their conditions may differ. Where two headings read alike, the source gives them in different places.

Tests used:
[1] = Tissue distribution of NCA N-(3-[^18 F]fluoropropyl)spiroperidol in mice after butaclamol pretreatment; assay type: in vivo, female albino mice (BNL strain)
Protocol: Tissue Distribution of NCA N-(3-[^ 18 F]fluoropropyl)spiroperidol in Mice
Female albino mice (BNL strain), 22-27 g, were injected in a lateral tail vein with 24-85 μCi of N-(3-[^18 F]fluoropropyl)spiroperidol in 100 μl of isotonic saline solution.
Mice were pretreated with 2 mg/kg, i.v., of either (-)butaclamol (-), or
(+)butaclamol (+). The mice were killed by cervical dislocation and
decapitation at 5, 60 and 120 min after injection. The dissected tissues
were blotted to remove adhering blood and placed in tared counting vials.
A sample of blood was obtained from the trunk immediately after
decapitation. The entire tail was counted to verify the patency of the
tail vein injection. All samples were counted and weighed, and the
activity expressed as percent of injected dose per organ or percent of
injected dose per gram of tissue.

[2] = Metabolic stability of N-(3-[^18 F]fluoropropyl)spiroperidol in mouse brains; assay type: in vivo, female albino mice (BNL strain); conditions: for Percent Recovery of Total ^18 F Applied to C-18 Sep-Pak, H2O Eluate / Percent Recovery of Total ^18 F Applied to C-18 Sep-Pak, MeOH Eluate / Percent Recovery of Total ^18 F Applied to C-18 Sep-Pak, NaOH Eluate / Percent of ^18 F in MeOH as N-(3-[^18 F]fluoropropyl)spiroperidol / remaining at 1 h: 1 hr; for remaining at 1 h: mouse, brain, iv, read-out: Percent of Unchanged N-(3-[^18 F]fluoropropyl)spiroperidol
Protocol: Metabolic Stability of N-(3-[^18 F]fluoropropyl)spiroperidol in Mouse Brains
Three female albino mice (BNL strain), 27-30 g, were injected in a lateral tail vein with […] of N-(3-[^18 F]fluoropropyl)spiroperidol in 100 μl of isotonic saline solution. At 1 hr after injection, the mice were killed by cervical dislocation. The brain was rapidly removed, homogenized either in a mixture of 2 ml of CH3 OH and 4 ml of 0.4M HClO4, or in 2 ml of CH3 OH alone. The samples were centrifuged,and the CH3 OH fractions (or the entire supernants in the case of CH3 OH alone) were analyzed for unchanged N-(3-[^18 F]fluoropropyl)spiroperidol [Arnett et al., Life Sci., 36, 1359-1366 (1985)] and analyzed by HPLC (C18 column, 4.5×250 mm, CH3 OH:0.2N NH4 CO2 H (90:10), 1.5 ml/min).
^a The precipitates were separated without further washings.
^b The precipitates were separated and washed with MeOH--HClO4

[3] = Baboon plasma analyses: blood kinetics and metabolism; assay type: in vivo, baboon (Papio anubis)
Protocol: Baboon Plasma Analyses: Blood was sampled from the femoral artery at initial intervals of 5 sec. Aliquots of plasma were counted to determine the total plasma radioactivity clearance curve. Representative samples (Table 6) were also analyzed for unchanged N-(3-[^18 F]fluoropropyl)spiroperidol.
The baboon blood total plasma radioactivity clearance curve following injection of NCA N-(3-[^18 F]fluoropropyl)spiroperidol is depicted in FIG. 1. The blood clearance was very rapid. The appearance of metabolites in the blood was also rapid (Table 6). At 10 min after injection 68% of plasma radioactivity was due to unchanged N-(3-[^18 F]fluoropropyl)spiroperidol.
*Plasma samples were extracted with MeOH--0.4M HClO4

dopamine receptors [4] = assay: PET baboon studies: brain kinetics in striatum and cerebellum
Excerpt: A young adult (11 kg) female baboon (Papio anubis) was anesthetized initially with ketamine and subsequently maintained under halothane/nitrous oxide anesthesia for two PETT studies as described in the Arnett et al. paper referenced in Example 7. […] PET scans were made continually for 4 hr from the time of radioisotope injection. Regions of interest corresponding to the striata and cerebellum were selected.

dopamine receptors [5] = assay: Affinity for dopamine receptors; assay type: binding
dopamine receptors [6] = assay: Uptake in the brain and radiation burden (general statement); conditions: in vivo
[7] = (+)-butaclamol pretreatment, 5 min
[8] = (+)-butaclamol pretreatment, 60 min
[9] = (+)-butaclamol pretreatment, 120 min
[10] = (-)-butaclamol pretreatment, 5 min
[11] = (-)-butaclamol pretreatment, 60 min
[12] = (-)-butaclamol pretreatment, 120 min
[13] = mouse brain, 2X MeOH-HClO4 (washed again)
[14] = mouse brain, MeOH-HClO4 extraction, no further washings
[15] = baboon plasma, 0.67 min after injection
[16] = baboon plasma, 4.0 min after injection
[17] = baboon plasma, 10 min after injection
[18] = baboon plasma, 30 min after injection
[19] = baboon plasma, 120 min after injection
[20] = baboon, (-)-butaclamol pretreatment

**Q.** For `O=C(CCCN1CCC2(CC1)C(=O)N(CCC[18F])CN2c1ccccc1)c1ccc(F)cc1` [N-(3-[^18 F]fluoropropyl)spiroperidol], which “Cerebellum, % injected dose” value [1, 7] is on record?
**A.** 0.11 (0.08-0.14) %/organ

**Q.** And the “Striatum, % injected dose” value [1, 7]?
**A.** 0.051 %/organ

**Q.** And the “Whole Brain, % injected dose” value [1, 7]?
**A.** 0.79 (0.57-1.00) %/organ

**Q.** And the “Cerebellum, % injected dose” value [1, 8]?
**A.** 0.019 (0.013-0.025) %/organ

**Q.** What about the “Striatum, % injected dose” value [1, 8] of the same molecule?
**A.** 0.013 (0.009-0.018) %/organ

**Q.** What about the “Whole Brain, % injected dose” value [1, 8] of the same molecule?
**A.** 0.16 %/organ

**Q.** What about the “Cerebellum, % injected dose” value [1, 9] of the same molecule?
**A.** 0.012 %/organ

**Q.** And the “Striatum, % injected dose” value [1, 9]?
**A.** 0.010 %/organ

**Q.** What about the “Whole Brain, % injected dose” value [1, 9] of the same molecule?
**A.** 0.097 %/organ

**Q.** And the “Cerebellum, % injected dose” value [1, 10]?
**A.** 0.24 (0.13-0.45) %/organ

**Q.** And the “Striatum, % injected dose” value [1, 10]?
**A.** 0.084 (0.068-0.099) %/organ

**Q.** And the “Whole Brain, % injected dose” value [1, 10]?
**A.** 1.1 (0.9-1.4) %/organ

**Q.** What about the “Cerebellum, % injected dose” value [1, 11] of the same molecule?
**A.** 0.040 (0.032-0.048) %/organ

**Q.** And the “Striatum, % injected dose” value [1, 11]?
**A.** 0.089 %/organ

**Q.** And the “Whole Brain, % injected dose” value [1, 11]?
**A.** 0.67 (0.59-0.77) %/organ

**Q.** What about the “Cerebellum, % injected dose” value [1, 12] of the same molecule?
**A.** 0.028 (0.023-0.032) %/organ

**Q.** And the “Striatum, % injected dose” value [1, 12]?
**A.** 0.14 (0.11-0.17) %/organ

**Q.** And the “Whole Brain, % injected dose” value [1, 12]?
**A.** 0.56 (0.44-0.63) %/organ

**Q.** What about the “Percent Recovery of Total ^18 F Applied to C-18 Sep-Pak, H2O Eluate” value [2, 13] of the same molecule?
**A.** 11%

**Q.** And the “Percent Recovery of Total ^18 F Applied to C-18 Sep-Pak, MeOH Eluate” value (from here on “Percent Recovery … MeOH Eluate”) [2, 13]?
**A.** 81%

**Q.** What about the “Percent Recovery of Total ^18 F Applied to C-18 Sep-Pak, NaOH Eluate” value [2, 13] of the same molecule?
**A.** 3.1%

**Q.** What about the “Percent of ^18 F in MeOH as N-(3-[^18 F]fluoropropyl)spiroperidol” value (shortened to “Percent of ^18 F in MeOH”) [2, 13] of the same molecule?
**A.** 94%

**Q.** What about the “Percent Recovery … MeOH Eluate” value ([2]; mouse brain, MeOH Alone) of the same molecule?
**A.** 65%

**Q.** What about the “Percent of ^18 F in MeOH” value ([2]; mouse brain, MeOH Alone) of the same molecule?
**A.** 97%

**Q.** And the “Percent Recovery of Total ^18 F Applied to C-18 Sep-Pak, H2O Eluate” value [2, 14]?
**A.** 4.2%

**Q.** And the “Percent Recovery … MeOH Eluate” value [2, 14]?
**A.** 73%

**Q.** What about the “Percent Recovery of Total ^18 F Applied to C-18 Sep-Pak, NaOH Eluate” value [2, 14] of the same molecule?
**A.** 1.3%

**Q.** What about the “Percent of ^18 F in MeOH” value [2, 14] of the same molecule?
**A.** 94%

**Q.** And the “Stability to metabolic transformation in the central nervous system” value ([2]; mouse brain, one hour)?
**A.** very stable to metabolic transformation in the central nervous system

**Q.** What about the remaining at 1 h ([2]; 2X MeOH-HClO4 (washed again)) of the same molecule?
**A.** 76%

**Q.** And the remaining at 1 h ([2]; MeOH Alone)?
**A.** 62%

**Q.** What about the remaining at 1 h ([2]; MeOH-HClO4 extraction, no further washings) of the same molecule?
**A.** 69%

**Q.** And the “Blood / total plasma radioactivity clearance” value ([3]; baboon)?
**A.** very rapid; also recorded: rapid

**Q.** And the “Total recovery of ^18 F applied to C-18 Sep-pak” value ([3]; baboon plasma samples)?
**A.** 90-103%

**Q.** And the “% Recovery of Total ^18 F Applied to C-18 Sep-Pak, H2O Eluate” value (“% Recovery … H2O Eluate” below) [3, 15]?
**A.** 8%

**Q.** What about the “% Recovery of Total ^18 F Applied to C-18 Sep-Pak, MeOH Eluate” value (“% Recovery … MeOH Eluate” for short) [3, 15] of the same molecule?
**A.** 93%

**Q.** And the “% Recovery of Total ^18 F Applied to C-18 Sep-Pak, NaOH Eluate” value (shortened to “% Recovery … NaOH Eluate”) [3, 15]?
**A.** 2%

**Q.** And the “% of ^18 F in MeOH as N-(3-[^18 F]fluoropropyl)spiroperidol” value (“% of ^18 F in MeOH” below) [3, 15]?
**A.** 98%

**Q.** What about the “% Recovery … H2O Eluate” value [3, 16] of the same molecule?
**A.** 10%

**Q.** And the “% Recovery … MeOH Eluate” value [3, 16]?
**A.** 83%

**Q.** And the “% Recovery … NaOH Eluate” value [3, 16]?
**A.** 4%

**Q.** What about the “% of ^18 F in MeOH” value [3, 16] of the same molecule?
**A.** 99%

**Q.** And the “% Recovery … H2O Eluate” value [3, 17]?
**A.** 17%

**Q.** And the “% Recovery … MeOH Eluate” value [3, 17]?
**A.** 71%

**Q.** And the “% Recovery … NaOH Eluate” value [3, 17]?
**A.** 6%

**Q.** And the “% of ^18 F in MeOH” value [3, 17]?
**A.** 96%

**Q.** What about the “% Recovery … H2O Eluate” value [3, 18] of the same molecule?
**A.** 31%

**Q.** What about the “% Recovery … MeOH Eluate” value [3, 18] of the same molecule?
**A.** 45%

**Q.** What about the “% Recovery … NaOH Eluate” value [3, 18] of the same molecule?
**A.** 14%

**Q.** What about the “% of ^18 F in MeOH” value [3, 18] of the same molecule?
**A.** 90%

**Q.** What about the “% Recovery … H2O Eluate” value [3, 19] of the same molecule?
**A.** 49%

**Q.** And the “% Recovery … MeOH Eluate” value [3, 19]?
**A.** 30%

**Q.** What about the “% Recovery … NaOH Eluate” value [3, 19] of the same molecule?
**A.** 18%

**Q.** What about the “% of ^18 F in MeOH” value [3, 19] of the same molecule?
**A.** 74%

**Q.** And the “Appearance of metabolites in the blood” value ([3]; in vivo)?
**A.** rapid

**Q.** What about the remaining at 40 s ([3]; in vivo, iv, baboon plasma, 0.67 min after injection, read-out: % of Unchanged N-(3-[^18 F]fluoropropyl)spiroperidol) of the same molecule?
**A.** 91%

**Q.** And the remaining at 4 min ([3]; in vivo, iv, baboon plasma, 4.0 min after injection, read-out: % of Unchanged N-(3-[^18 F]fluoropropyl)spiroperidol)?
**A.** 82%

**Q.** What about the remaining at 10 min ([3]; in vivo, iv, baboon plasma, 10 min after injection, read-out: % of Unchanged N-(3-[^18 F]fluoropropyl)spiroperidol) of the same molecule?
**A.** 68%

**Q.** What about the remaining at 0.5 h ([3]; in vivo, iv, baboon plasma, 30 min after injection, read-out: % of Unchanged N-(3-[^18 F]fluoropropyl)spiroperidol) of the same molecule?
**A.** 41%

**Q.** What about the remaining at 2 h ([3]; in vivo, iv, baboon plasma, 120 min after injection, read-out: % of Unchanged N-(3-[^18 F]fluoropropyl)spiroperidol) of the same molecule?
**A.** 22%

**Q.** What about the “Striatal accumulation of radioactivity, blocking by (+)-butaclamol” value (dopamine receptors [4]; (+)-butaclamol pretreatment, species not given) of the same molecule?
**A.** blocked stereoselectively by (+)-butaclamol

**Q.** What about the “Radioactivity in the cerebellum after first few minutes” value (dopamine receptors [4]; [20]) of the same molecule?
**A.** declined rapidly in the cerebellum

**Q.** What about the “Radioactivity in the striatum after first few minutes” value (dopamine receptors [4]; [20]) of the same molecule?
**A.** increasing for up to 4 hrs in the striatum

**Q.** And the “Influx into striatum and cerebellum” value (dopamine receptors [4]; baboon, (-)-butaclamol pretreatment, first few minutes)?
**A.** nearly equal for the first few minutes

**Q.** And the “Affinity for dopamine receptors” value (dopamine receptors [5])?
**A.** extremely high affinity for dopamine receptors

**Q.** What about the Radiation burden (dopamine receptors [6]) of the same molecule?
**A.** reduced radiation burden

**Q.** And the “Uptake and retention in the brain” value (dopamine receptors [6])?
**A.** enhanced uptake and retention in the brain
